Entries after “also recorded” stand apart in the source; their conditions may differ. Like-named read-outs stand apart in the source and are kept apart here. Bounds are passed on as bounds.

Data set [1] has as its target T1, RAD51 (Homo sapiens, UniProt Q06609).
T1 sequence (Q06609 1-339): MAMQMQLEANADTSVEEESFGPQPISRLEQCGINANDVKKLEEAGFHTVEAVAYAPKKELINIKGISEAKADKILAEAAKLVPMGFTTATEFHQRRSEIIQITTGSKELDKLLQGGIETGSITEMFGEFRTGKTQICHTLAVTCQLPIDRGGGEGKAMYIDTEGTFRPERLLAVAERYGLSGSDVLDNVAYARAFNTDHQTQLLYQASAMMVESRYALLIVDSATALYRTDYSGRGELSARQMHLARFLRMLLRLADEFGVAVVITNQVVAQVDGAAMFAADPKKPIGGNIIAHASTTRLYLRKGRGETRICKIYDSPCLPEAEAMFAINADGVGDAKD
Briefly: Fluorescence polarization-based DNA binding assay (RAD51-ssDNA binding). It counts as biochemical. The conditions noted are these: for IC50 / ssDNA binding IC50: Stim = stimulator; for Emax: read-out: ssDNA binding Max effect; for influence on RAD51-ssDNA binding, in words: summary of Tables 2 and 3. On the procedure:
The fluorescence polarization-based DNA binding assay and purification of human RAD51 used for this assay was performed as previously described with a few modifications.^23 Reactions were carried out in black 384-well polystyrene plates. In each well, RAD51 protein was combined with reaction buffer and varying concentrations of compound in DMSO in an initial volume of 40 μl and incubated at 37° C. for 40 minutes. Then, 10 μl of reaction buffer containing fluorescently-labeled ssDNA substrate (5′-Alexa488-oligo-dT45) was added and the reaction incubated at 37° C. for another 40 minutes, after which the plate was read on a Tecan Infinite 200 Pro plate reader equipped with two sets of 485±25 nm/535±35 nm with parallel or perpendicularly-oriented polarization filters. In both steps of the reaction setup, buffer components were maintained at 20 mM HEPES-NaOH (pH 7.5), 2 mM ATP, 10 mM MgCl2, 0.1 mM TCEP-HCl (tris(2-carboxyethyl)phosphine), and 0.25 μM BSA. The final reaction contained 4% DMSO, 0.2 μM RAD51, 30 mM NaCl, 2% glycerol, and 2.22 nM ssDNA substrate. Compound IC50 values were obtained by least-squares regression fitting of appropriate linear, log, or sigmoid dose-response models to the data, with the standard error indicated. […]
For orientation: In fluorescence polarisation assays a small probe gives low polarisation when free and higher when bound to something large.

In data set [2] the target is T1, RAD51. Briefly: Gel-based D-loop assay. It counts as biochemical. As to conditions: for IC50: read-out: D-Loops IC50; for D-loop inhibitory activity, in words: summary of Tables 2 and 3. The procedure:
Human RAD51 in reaction buffer was combined with compound in […] DMSO, incubated at 37° C. for 10 min, and then 1 μl of 5′-^32P-labeled 90-mer ssDNA (5′-[…]) with homology to the plasmid pRS306 ^34 was added and the reaction was incubated at 37° C. for an additional 5 minutes. 1 μl of supercoiled pRS306 was then added to the reaction and incubated at 37° C. for 20 minutes; at this point the reaction consisted of 25 mM HEPES-NaOH (pH 7.0), 1 mM ATP, 1 mM MgCl2, 1 mM DTT, 1.5 μM BSA, 4.5% DMSO, 0.5 μM RAD51, 11 mM NaCl, 1% glycerol, 20 nM ssDNA, and 5 nM pRS306. The reactions were de-proteinized with 0.8% SDS and 0.8 mg/ml proteinase K, mixed with gel loading buffer, and run on a 0.9% agarose/1×TAE gel, which was dried and exposed to a phosphor screen overnight and imaged on a Storm 860 PhosphorImager. Compound IC50 values were obtained by least-squares regression fitting of appropriate linear, log, or sigmoid dose-response models to the data, with the standard error indicated.
To improve upon the D-loop inhibitory activity, medicinal chemical studies were undertaken to optimize 8. First, different functional groups were appended to rings A and B as substituents, including alkyl groups of different sizes, electron withdrawing/donating groups, and hydrogen bond donor/acceptor groups. Next, replacement of the phenyl ring B with different heterocycles or other saturated/unsaturated rings was investigated in order to probe its role. For each of the prepared compounds, the gel-based D-loop assay and the microplate-based DNA binding assay were used to characterize the biochemical activities.

A further data set concerns 293-DR-GFP cells. Briefly: DR-GFP assay, quantitation of HR efficiency in cells. Type of data set: cell-based, human. The conditions noted are these: 24-hour incubation, FIG. 5a. The procedure: 293-DR-GFP cells were electroporated in Opti-MEM with 37.5 μg/ml pCBASce in 0.4 cm cuvettes at 325 V, 975 μF and seeded into 6-well plates with 2.5 ml complete DMEM+0.5% DMSO with compound and allowed to outgrow for 24 hours. Following outgrowth, cells were harvested and suspended in PBS with 1 μg/ml 7-aminoactinomycin D (7-AAD) and analyzed on a BD FACSCalibur flow cytometer. Dead and apoptotic cells were gated out based on size, shape, and 7-AAD staining and the fraction of GFP-positive cells among the population of live cells was determined.
The DR-GFP assay was used to test the ability of representative compounds to inhibit HR in human cells.^27 Briefly, cells containing the chromosomal DR-GFP reporter were transfected with a plasmid that expresses I-SceI, a rare-cutting endonuclease that makes a DSB within the DR-GFP cassette. Compounds were added at the time of transfection and the cells were outgrown for 24 hours. For longer outgrowth periods such as 48 hours, cells regained some HR activity. To overcome this technical limitation, the relatively early time point of 24 hours was selected to describe the in vivo effects of these compounds.

Data set [3] is described as follows: Stability on exposure to air at room temperature. As to conditions: slowly oxidized over time to compound 8. It counts as physicochemical. From the text: These experimental results signify that compound 7 and 1 are distinct compounds. Compound 7 was not stable when exposed to air at room temperature; instead, it slowly oxidized over time to compound 8 (Scheme 2). Additionally, some of the oxidized product 8 was always produced during the preparation of compound 7.

[4] abbreviates: Table 3, cells marked ↓: compound inhibits RAD51-ssDNA binding.
[5] abbreviates: Table 3, cells marked ↑: compound stimulates RAD51-ssDNA binding.
Setting [6] is: Table 2, cells marked ↓: compound inhibits RAD51-ssDNA binding.
Where [7] appears, read: Table 1, cells marked ↑: compound stimulates RAD51-ssDNA binding.

With `Oc1ccc(-c2nc3cc(O)ccc3n3cccc23)cc1` [Compound 12d, 4-(4-Hydroxyphenyl)pyrrolo[1,2-a]quinoxalin-7-ol], the IC50 at RAD51 [1] (Table 3) is greater than 100 µM; at RAD51 [2] (Table 3), 27.6 ± 4.9 µM. For the same compound, at RAD51 [1] (setting [4]), the Emax stood at 72 ± 11%.
Turning to `CN(C)c1ccc(-c2nc3cc(O)ccc3n3cccc23)cc1` [Compound 12g, 4-(4-(Dimethylamino)phenyl)pyrrolo[1,2-a]quinoxalin-7-ol], the “ssDNA binding IC50” value at RAD51 [1] (Table 3) is given as “Stim”. In addition, the Emax at RAD51 [1] (setting [5]) was 34 ± 32%. The “influence on RAD51-ssDNA binding, in words” value (“influence” below) on RAD51 [1] was “only weakly influenced”. Further, on RAD51 [2] (Table 3), the “D-Loops Max inhibition effect” value is on record as 91 ± 8% and the IC50 worked out at 9.8 µM. Besides, the “inhibitory activity in the cell-based HR (DR-GFP) assay relative to 1 and 8, in words” value with 293-DR-GFP cells is “comparable or slightly less inhibitory activity”.
On to `c1ccc2c(c1)nc(-c1ccc(N3CCOCC3)cc1)c1cccn12` [Compound 9j, 4-(4-(Pyrrolo[1,2-a]quinoxalin-4-yl)phenyl)morpholine], for which, on RAD51 [1] (setting [6]), the Emax came out at 11 ± 19%. In addition, on RAD51 [2] (Table 2), the “D-Loops Max inhibition effect” value was 68 ± 7% and the IC50 worked out at 27.2 ± 3 µM.
In the case of `Nc1ccc(-c2nc3ccccc3n3cccc23)cc1` [Compound 9g, 4-(Pyrrolo[1,2-a]quinoxalin-4-yl)aniline], the concentration for half-maximal inhibition (IC50) is greater than 100 µM on RAD51 [1] (Table 2) and 22.1 µM at RAD51 [2] (Table 2). Besides, on RAD51 [1] (setting [6]), the Emax came to 18 ± 11%.
As to `c1ccc2c(c1)nc(-c1ccncc1)c1cccn12` [Compound 11b, 4-(Pyridin-4-yl)pyrrolo[1,2-a]quinoxaline], the Emax at RAD51 [1] (setting [6]) amounted to 7 ± 38%. Moreover, the IC50 at RAD51 [2] (Table 2) was 79.4 ± 6 µM. Besides, the “D-loop inhibitory activity, in words” value on RAD51 [2] was “moderate”.
Take `CN(C)c1ccc(-c2nc3cc(F)c(F)cc3n3cccc23)cc1` [Compound 12m, 4-(7,8-Difluoropyrrolo[1,2-a]quinoxalin-4-yl)-N,N-dimethylaniline]: at RAD51 [1] (Table 3), the “ssDNA binding IC50” value is “Stim”. In addition, on RAD51 [1] (setting [5]), the Emax stood at 65 ± 22%. The “D-loop inhibitory activity, in words” value on RAD51 [2] was “nearly absent”.
Consider `CN(C)c1ccc(-c2nc3cc(OC(C)(C)C(N)=O)ccc3n3cccc23)cc1` [Compound 16, 2-((4-(4-(Dimethylamino)phenyl)pyrrolo[1,2-a]quinoxalin-7-yl)oxy)-2-methylpropanamide], for which, at RAD51 [1] (Table 3), the “ssDNA binding IC50” value is “Stim”. The Emax at RAD51 [1] (setting [5]) stood at 131 ± 28%. The “influence” value on RAD51 [1] is “stimulators”. The IC50 at RAD51 [2] (Table 3) is greater than 100 µM.
As to `COc1ccc2c(c1)NC(c1ccc(N(C)C)cc1)c1cccn1-2` (stereo not drawn) [Compound 7, 4-(7-Methoxy-4,5-dihydropyrrolo[1,2-a][13]quinoxalin-4-yl)-N,N-dimethylaniline], on RAD51 [1] (Table 1), the “ssDNA binding IC50” value is recorded as “Stim”. Further, at RAD51 [1] (setting [7]), the Emax was 47%. Besides, the “stability when exposed to air at room temperature” value in data set [3] is recorded as “not stable”. The “D-Loops Max inhibition effect” value at RAD51 [2] (Table 1) came out at 17%. For the same compound, the “inhibitory activity in the cell-based HR (DR-GFP) assay relative to 1 and 8, in words” value with 293-DR-GFP cells is given as “comparable”.
For the compound `C1=C(c2nc3ccccc3n3cccc23)CCCC1` [Compound 11c, 4-(Cyclohex-1-en-1-yl)pyrrolo[1,2-a]quinoxaline], the “ssDNA binding IC50” value at RAD51 [1] (Table 2) was “Stim”. Further, the Emax on RAD51 [1] (Table 2, cells marked ↑: compound stimulates RAD51-ssDNA binding) was 42 ± 17%. The “influence” value on RAD51 [1] was “modest influence”. For the same compound, at RAD51 [2], the “D-loop inhibitory activity, in words” value is given as “weak”.
On to `Nc1cccc(-c2nc3ccccc3n3cccc23)c1` [Compound 9c, 3-(Pyrrolo[1,2-a]quinoxalin-4-yl)aniline], for which, on RAD51 [1] (setting [6]), the Emax was found to be 11 ± 9%. Further, the IC50 on RAD51 [2] (Table 2) was determined as 91.1 ± 10.3 µM.
For the compound `COc1ccc2c(c1)nc(-c1cccnc1)c1cccn12` [Compound 13a, 7-Methoxy-4-(pyridin-3-yl)pyrrolo[1,2-a]quinoxaline], on RAD51 [1] (setting [4]), the Emax was 16 ± 28%. On RAD51 [2] (Table 3), the “D-Loops Max inhibition effect” value is 74 ± 5% and the IC50 was 38.6 ± 6.2 µM.
Take `COc1ccc2c(c1)nc(-c1ccc(N(C)C)cc1)c1cccn12` [Compound 8, 4-(7-Methoxypyrrolo[1,2-a]quinoxalin-4-yl)-N,N-dimethylaniline]: the “ssDNA binding IC50” value at RAD51 [1] (Table 1) is “Stim”. Besides, the Emax at RAD51 [1] (setting [7]) stood at 40 ± 28%. In addition, at RAD51 [2] (Table 1), the “D-Loops Max inhibition effect” value amounted to 67% and the IC50 came to 13 µM.
Turning to `Oc1ccc2c(c1)nc(-c1cccnc1)c1cccn12` [Compound 13b, 4-(Pyridin-3-yl)pyrrolo[1,2-a]quinoxalin-7-ol], on RAD51 [1] (setting [4]), the Emax turned out to be 87 ± 10%. For the same compound, the “D-Loops Max inhibition effect” value on RAD51 [2] (Table 3) came out at 53 ± 30%.
Consider `Nc1ccc(-c2nc3cc(O)ccc3n3cccc23)cc1` [Compound 12f, 4-(4-Aminophenyl)pyrrolo[1,2-a]quinoxalin-7-ol], for which the figures for the IC50 on RAD51 [1] (Table 3) and on RAD51 [2] (Table 3) were 96.9 ± 44.9 µM and 8.4 ± 3.4 µM, respectively. Further, the Emax on RAD51 [1] (setting [4]) turned out to be 82 ± 23%. Further, the “influence” value on RAD51 [1] is reported as “modest effects”. The “inhibitory activity in the cell-based HR (DR-GFP) assay relative to 1 and 8, in words” value with 293-DR-GFP cells is “comparable or slightly less inhibitory activity”.
Turning to `CN(C)c1ccc(-c2nc3cc(F)ccc3n3cccc23)cc1` [Compound 12j, 4-(7-Fluoropyrrolo[1,2-a]quinoxalin-4-yl)-N,N-dimethylaniline], on RAD51 [1] (Table 3), the “ssDNA binding IC50” value is “Stim”. Moreover, at RAD51 [1] (setting [5]), the Emax worked out at 57 ± 28%. Moreover, the “D-loop inhibitory activity, in words” value on RAD51 [2] is recorded as “nearly absent”.
With `Nc1ccc(-c2nc3cc(OCCF)ccc3n3cccc23)cc1` [Compound 15b, 4-(7-(2-Fluoroethoxy)pyrrolo[1,2-a]quinoxalin-4-yl)aniline], on RAD51 [1] (Table 3), the “ssDNA binding IC50” value is “Stim”. On RAD51 [1] (setting [5]), the Emax stood at 79 ± 23%. In addition, the “influence” value on RAD51 [1] is recorded as “stimulators; also recorded: modest effects”. For the same compound, at RAD51 [2] (Table 3), the IC50 was 20 ± 4.1 µM.
As to `Nc1ccc(-c2nc3cc(F)c(F)cc3n3cccc23)cc1` [Compound 12l, 4-(7,8-Difluoropyrrolo[1,2-a]quinoxalin-4-yl)aniline], the IC50 on RAD51 [1] (Table 3) was greater than 100 µM; at RAD51 [2] (Table 3), 34 ± 2.9 µM. In addition, the Emax at RAD51 [1] (setting [4]) came to 42 ± 8%.

The term IC50 denotes the midpoint of a concentration-inhibition curve.

The values are drawn from US10973819B2, “Small molecules inhibitors of RAD51” (The University of Chicago, priority 2016, dated 2021).
